Test results from PMC5540198, “A phase I trial of ganetespib in combination with paclitaxel and trastuzumab in patients with human epidermal growth factor receptor-2 (HER2)-positive metastatic breast cancer” (Breast Cancer Research : BCR, 2017).
Read-outs that look alike come from different tables or passages of the source. Marks after values point to notes of the source that are not given here.

How the values were obtained:
[1] = tested on: HER2-positive and ER-positive breast cancer; design: method as in PMID 18430202; conditions: intravenous, single agent; among 10 patients; cited from earlier work
[2] = design: method as in earlier work; conditions: PET agent labelled with ^124I; cited from earlier work
[3] = tested on: HER2-positive metastatic breast cancer; design: method as in PMID 22781552; conditions: plus trastuzumab; cited from earlier work
[4] = tested on: patients with HER2-positive metastatic breast cancer; experiment: Phase I dose-escalation trial: safety, DLT and RP2D of ganetespib with paclitaxel and trastuzumab; format: in vivo, human
Description: Patients were eligible if they were aged ≥ 18 years, had locally advanced or metastatic HER2-positive disease (defined as FISH ratio ≥ 2.0 or immunohistochemistry (IHC) 3+), ECOG ≤ 2, measurable disease per RECIST 1.1 [23], and adequate end organ function (defined as hemoglobin ≥ 9 g/dl, absolute neutrophil count (ANC) ≥ 1.5 × 10^9/L, platelets ≥ 100 × 10^9/L, bilirubin ≤ 1.5 upper limit of normal (ULN), aspartate aminotransferase (AST) and alanine aminotransferase (ALT) ≤ 2.5 ULN, and serum creatinine ≤ 1.5 ULN). Patients must have received prior trastuzumab and those with estrogen receptor (ER)-positive disease must have received prior endocrine therapy. Any number of prior lines of chemotherapy in the metastatic setting was allowed. Progression on prior treatment with pertuzumab and T-DM1 was required (unless heavily pretreated prior to FDA approval of pertuzumab for first-line treatment of HER2-positive metastatic breast cancer (6/2012) and/or T-DM1 (2/2013)).
Patients received intravenous infusions of trastuzumab and paclitaxel with ganetespib on days 1, 8, and 15 and of trastuzumab and paclitaxel on day 22 of a 28-day cycle. The sequence of administration was trastuzumab (2 mg/kg) followed by paclitaxel (80 mg/m^2) followed by ganetespib. If the patient’s last dose of trastuzumab was >21 days before enrollment, they received a loading dose of trastuzumab at 4 mg/kg over 90 minutes. Ganetespib was then administered intravenously over 60 minutes. The starting dose of ganetespib was 100 mg/m^2, and if there were no DLTs the next cohort would escalate to 150 mg/m^2. A further dose level of 125 mg/m^2 was incorporated in the circumstance of good tolerance of the 100 mg/m^2 but poor tolerance of the 150 mg/m^2 dose levels. There was no dose escalation for paclitaxel and trastuzumab. Therapy was continued until disease progression or unacceptable toxicity.
Patients were examined and assessed for toxicities during and prior to each cycle. Toxicity was graded according to National Cancer Institute (NCI) CTCAE version 4.0 (http://ctep.cancer.gov/protocolDevelopment/electronic_applications/ctc.htm#ctc_40). Patients were evaluated for DLT during cycle 1. DLT was defined as any drug-related grade ≥ 4 nonhematologic adverse events (AEs) or any grade 3 nonhematologic AEs not improving to baseline or grade ≤ 1 by day 14; grade 4 neutropenia lasting ≥ 7 days, or febrile neutropenia, grade 4 thrombocytopenia, or any grade 3 thrombocytopenia that has not recovered to grade ≤ 2 by day 7; or any treatment-related toxicity prompting a dose reduction of ganetespib during the DLT observation period.
Paclitaxel dose reductions were not permitted during the DLT observation period. For dosing beyond cycle 1, paclitaxel was held if patients experienced any other grade 3 or 4 toxicity thought to be related to paclitaxel until symptoms resolved to grade 1/baseline grade. One dose reduction for paclitaxel to 65 mg/m^2 was permitted.

metastatic breast cancer = tested on: metastatic breast cancer; design: method as in PMID 24512858; conditions: cited from earlier work
[5] = tested on: HER2-positive metastatic breast cancer; experiment: Phase I trial: anti-tumor activity by RECIST 1.1; format: in vivo, human
Method: The sequence of administration was trastuzumab (2 mg/kg) followed by paclitaxel (80 mg/m^2) followed by ganetespib. If the patient’s last dose of trastuzumab was >21 days before enrollment, they received a loading dose of trastuzumab at 4 mg/kg over 90 minutes. Ganetespib was then administered intravenously over 60 minutes. The starting dose of ganetespib was 100 mg/m^2, and if there were no DLTs the next cohort would escalate to 150 mg/m^2. A further dose level of 125 mg/m^2 was incorporated in the circumstance of good tolerance of the 100 mg/m^2 but poor tolerance of the 150 mg/m^2 dose levels. There was no dose escalation for paclitaxel and trastuzumab. Therapy was continued until disease progression or unacceptable toxicity. Patients were evaluated for response initially after two cycles and then every three cycles thereafter using the RECIST criteria. All patients with PR or complete response (CR) were required to have confirmation of response 4 weeks after the criteria for response were first met. The best overall response was defined as the best response recorded from the start of treatment until disease progression or withdrawal from the study. […] The CBR was defined as the proportion of patients whose best overall response, according to RECIST, was CR, PR, or SD lasting for at least 24 weeks.

[6] = Pharmacokinetics of paclitaxel in plasma, cycle 1 day 8 to day 9; format: in vivo, human
Method: Blood samples for determination of plasma concentrations of paclitaxel were collected on cycle 1, day 8 through cycle 1, day 9 at the following time points after trastuzumab infusion and relative to the start of the paclitaxel infusion: 5 minutes prior to treatment, and 30 and 60 minutes (immediately prior to stopping the paclitaxel infusion pump and starting the ganetespib infusion) after start of paclitaxel infusion. Blood samples were also collected at the following time points after starting ganetespib infusion: 1.5, 2, 4, 7, 21, 24, 27, and 31 hours. Each blood sample (3–5 ml) was collected in sodium heparin tubes and transferred into two polypropylene tubes (1 ml each) and stored at –80 °C. PK were performed in collaboration with Synta Pharmaceuticals, Inc. PK parameters of paclitaxel (such as the area under the curve (AUC) and the maximum serum concentration (Cmax)) were examined descriptively to evaluate the effect of ganetespib on these measures.

[7] = tested on: HER2-positive breast cancer; design: method as in PMID 23580070; conditions: in combination with trastuzumab; cited from earlier work
[8] = tested on: trastuzumab-refractory HER2-positive metastatic breast cancer; design: method as in PMID 18048823, PMID 21558407; conditions: in combination with trastuzumab; cited from earlier work

## CCNC(=O)c1noc(-c2cc(C(C)C)c(O)cc2O)c1-c1ccc(CN2CCOCC2)cc1 [NVP-AUY922]
[1]
  confirmed PR by RECIST, number: one
  partial metabolic responses on FDG-PET, number: two

## CC(C)NCCCn1c(Sc2cc3c(cc2[124I])OCO3)nc2c(N)ncnc21 [^124I-PU-H71]
[2]
  half-life: 96.5 h

## CO[C@H]1/C=C\C=C(/C)C(=O)NC2=CC(=O)C(NCCN(C)C)=C(C[C@@H](C)C[C@H](OC)[C@H](O)[C@@H](C)/C=C(\C)[C@@H]1OC(N)=O)C2=O [alvespimycin]
[3]
  partial response (PR), number of cases: one
  stable disease (SD) lasting >6 months, number of cases: six

## CC(C)c1cc(-c2n[nH]c(=O)n2-c2ccc3c(ccn3C)c2)c(O)cc1O [ganetespib, 5-(2,4-dihydroxy-5-(1-methylethyl)phenyl)-4-(1-methyl-1H-indol-5-yl)-2,4-dihydro-(1,2,4)triazol-3-one]
[4]; in combination with weekly paclitaxel plus trastuzumab
  recommended phase II dose (RP2D): 150 mg/m^2
[4]; nine patients
  anemia, grade 1/2, drug-related: 44%
  diarrhea, grade 1/2, drug-related: 78%
  elevated AST or ALT, grade 1/2, drug-related: 32%
  fatigue, grade 1/2, drug-related: 67%
  nausea, grade 1/2, drug-related: 32%
  rash, grade 1/2, drug-related: 32%
[4]; nine patients, CTCAE 4.0
  grade 4 AEs related to ganetespib: no grade 4 AEs
[4]; nine patients, cycle 1, 100 and 150 mg/m^2 cohorts
  patients with dose-limiting toxicities (DLTs): None
[4]; of nine patients
  Grade 3 ALT, increased, N patients: 1
  Grade 3 phosphorus, decreased, N patients: 1
  Grade 3 pruritus, N patients: 1
Metastatic breast cancer; single-agent ganetespib
  ORR: 15%
Metastatic breast cancer; single-agent, HER2-positive metastatic breast cancer
  cases of SD in HER2-positive patients, number: six
Metastatic breast cancer; single-agent, HER2-positive, trastuzumab-refractory metastatic breast cancer
  confirmed PRs, number: two
Metastatic breast cancer; single-agent, six HER2-positive and one TNBC
  SDs, total number: seven
[5]; ganetespib 100 or 150 mg/m^2 days 1, 8, 15 with weekly paclitaxel 80 mg/m^2 and trastuzumab 2 mg/kg, 2/9 patients, both in 150 mg/m^2 cohort
  overall response rate (ORR), confirmed partial responses: 22%
[5]; triplet regimen, 4/9 patients
  clinical benefit rate (CBR: CR, PR or SD at least 24 weeks): 44%
[5]; triplet regimen, nine patients
  median progression-free survival: 20 weeks
  progression-free survival, range: 8–55 weeks

## CC(=O)O[C@H]1C(=O)[C@@]2(C)[C@H]([C@H](OC(=O)c3ccccc3)[C@]3(O)C[C@H](OC(=O)[C@H](O)[C@@H](NC(=O)c4ccccc4)c4ccccc4)C(C)=C1C3(C)C)[C@]1(OC(C)=O)CO[C@@H]1C[C@@H]2O [paclitaxel]
[6]; human, in vivo, iv
  Tmax: 1.0 ± 0.0 h
  half-life: 13.6 ± 3.3 h
[6]; human, in vivo, iv, Tmax
  Tmax: 0.8 ± 0.3 h
[6]; human, in vivo, iv, paclitaxel 80 mg/m^2 i.v., ganetespib 100 mg/m^2, n=3
  Cmax: 3.34 ± 1.27 µg/mL
[6]; paclitaxel 80 mg/m^2 i.v., ganetespib 100 mg/m^2, n=3
  T1/2: 12.9 ± 0.4 h
[4]; of nine patients, attributable to paclitaxel
  Grade 3 blurred vision/grade 3 dry eyes (in same patient), N patients: 1^a

## C=CCNc1c(O)cc2c(O)c1C[C@@H](C)C[C@H](OC)[C@H](O)[C@@H](C)/C=C(\C)[C@H](OC(N)=O)[C@@H](OC)/C=C\C=C(/C)C(=O)N2 [retaspimycin]
[7]
  patients with stable disease: 62%

## C=CCNC1=C2C[C@@H](C)C[C@H](OC)[C@H](O)[C@@H](C)/C=C(\C)[C@H](OC(N)=O)[C@@H](OC)/C=C\C=C(/C)C(=O)NC(=CC1=O)C2=O [tanespimycin]
[8]
  clinical benefit rate (CBR): 59%
  response rate: 22%
